From patent publication US12152030B2 (NOVOSTAR PHARMACEUTICALS, LTD., priority 2019, dated 2024) come the findings set out here.

The subject of assay [1] is Phosphorylated eIF4E. The assay is described as follows: Intracellular peIF4E signaling assay. In kind it is cell-based. The following applies: 2 h; two hours incubation at 37° C.; read-out: peIF4E signaling cell assay IC50. As for the experimental part:
Phosphorylated eIF4E was determined using CisBio peIF4E assay kit (CisBio, catalog number 64EF4PEG). The cells were plated in a 96-well cell culture plate in a volume of 90 μL, and the number of cells per well was 5*10^4. The compounds (10×) were subjected to 3-fold serial dilution, added to the cell plate in a volume of 10 μL with the final DMSO concentration being 1%, and incubated at 37° C. for two hours. The cell plate was centrifuged at 300 g for 5 minutes, and the cell supernatant was carefully removed. The cell plate was immediately added with 50 μL of cell lysis buffer […] and incubated at 25° C. with shaking for at least 30 minutes. After homogenization by pipetting, 16 μL of cell lysate was transferred from the 96-well cell culture plate to a 384-well small-volume microwell plate. According to the kit instruction, an antibody mixture solution was prepared with a detection buffer, and was added in a volume of 4 μL to the 384-well small-volume microwell plate containing the cell lysate. The plate was covered with a plate sealer, incubated overnight at 25° C., and was read for fluorescence emission at two different wavelengths (665 nm and 615 nm) on the EnVision microplate reader counter. The emission ratio was imported into a GraphPadPrism software to fit the compound concentration (IC50) required for 50% inhibition of enzyme activity.
In this respect, IC50 values which are less than 0.05 μM were marked as “+++”, which are from 0.05 to 1.0 μM were marked as “++”, and which are greater than 1.0 and up to 100 μM were marked as “+”, and NA meant “not detected”.

For assay [2], the target named is T1, MNK2 (Homo sapiens, UniProt Q9HBH9). Description: KinomeScan, MNK2. In kind it is binding. The text has this:
KinomeScan was used to determine the kinase selectivity of compound 2.

Assay [3] deals with T1, MNK2. The assay is described as follows: MNK biological enzyme assay (HTRF kinase assay), MNK2. More on the design: purchased ThermoFisher PV5607. The assay is classed as biochemical. The note with it: 1 ng/μl MNK2, 1 μM STK1 peptide, 100 μM ATP. As for the experimental part: (§1) A HTRF kinase assay kit (Cisbio, catalog number 62ST1PEB) was used to determine the MNK inhibitory activity of the compounds. All kinase reactions were performed in the reaction buffer (provided in the kit). The final MNK1 reaction involved 3 ng/ul recombinant MNK1 (ThermoFisher, PV6023), 1 μM MNK substrate peptide STK1 (provided in the kit), 100 μM ATP, and different concentrations of the inhibitory compounds of interest. The final MNK2 reaction involved 1 ng/μl recombinant MNK2 (ThermoFisher, PV5607), 1 μM MNK substrate peptide STK1 (provided in the kit), 100 μM ATP, and different concentrations of the inhibitory compounds of interest. The final DMSO concentration in each of the reactions was 1%.
(§2) The kinase reaction was performed in a final volume of 10 μl in a 384-well white flat-bottomed polystyrene plate. The MNK1/2 enzyme was pre-incubated with the compound and substrate peptide for 5 minutes, and then ATP was added thereto. After addition of ATP, the kinase reaction was incubated at 25° C. for 120 minutes or 60 minutes. The reaction was subsequently terminated by adding 5 μl of EU3+ substrate antibody detection reagent and 5 μl of XL665 detection reagent, and incubating for another 60 minutes. The luminescent signal was detected with an EnVision microplate reader counter (Perkin Elmer), and the signal from 10-point dilution series of the compounds was used to calculate the compound concentration (IC50) required to achieve 50% inhibition of enzyme activity.
(§3) In this respect, IC50 values which are less than 0.01 μM were marked as “+++”, which are from 0.01 to 0.1 μM were marked as “++”, and which are greater than 0.1 and up to 10.0 μM were marked as “+”, and NA meant “not detected”.
A general note: TR-FRET usually uses a lanthanide donor and a delayed reading to cut background.

Assay [4] deals with MNK1 (Homo sapiens, UniProt Q9BUB5). Description: MNK biological enzyme assay (HTRF kinase assay), MNK1. Also noted: purchased ThermoFisher PV6023. The assay is classed as biochemical. The note with it: 3 ng/ul MNK1, 1 μM STK1 peptide, 100 μM ATP. As for the experimental part:
as §1, §2, §3

Where a name gives a salt, the structure may show the parent alone.

T1 sequence (Q9HBH9 whole entry): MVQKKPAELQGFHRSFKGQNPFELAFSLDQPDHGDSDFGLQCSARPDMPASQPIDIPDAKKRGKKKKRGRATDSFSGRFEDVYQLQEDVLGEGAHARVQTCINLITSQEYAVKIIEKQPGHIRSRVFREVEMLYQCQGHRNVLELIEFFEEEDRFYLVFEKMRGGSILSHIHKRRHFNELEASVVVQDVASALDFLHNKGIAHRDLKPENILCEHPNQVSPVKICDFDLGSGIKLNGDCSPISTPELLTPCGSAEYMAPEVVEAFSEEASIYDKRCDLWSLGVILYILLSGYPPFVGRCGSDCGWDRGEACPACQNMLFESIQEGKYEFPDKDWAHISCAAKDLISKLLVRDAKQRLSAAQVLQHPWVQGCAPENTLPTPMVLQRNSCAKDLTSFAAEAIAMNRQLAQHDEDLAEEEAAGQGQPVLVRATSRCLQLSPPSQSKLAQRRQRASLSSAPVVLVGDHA
Chain of MNK1 (Q9BUB5 whole entry): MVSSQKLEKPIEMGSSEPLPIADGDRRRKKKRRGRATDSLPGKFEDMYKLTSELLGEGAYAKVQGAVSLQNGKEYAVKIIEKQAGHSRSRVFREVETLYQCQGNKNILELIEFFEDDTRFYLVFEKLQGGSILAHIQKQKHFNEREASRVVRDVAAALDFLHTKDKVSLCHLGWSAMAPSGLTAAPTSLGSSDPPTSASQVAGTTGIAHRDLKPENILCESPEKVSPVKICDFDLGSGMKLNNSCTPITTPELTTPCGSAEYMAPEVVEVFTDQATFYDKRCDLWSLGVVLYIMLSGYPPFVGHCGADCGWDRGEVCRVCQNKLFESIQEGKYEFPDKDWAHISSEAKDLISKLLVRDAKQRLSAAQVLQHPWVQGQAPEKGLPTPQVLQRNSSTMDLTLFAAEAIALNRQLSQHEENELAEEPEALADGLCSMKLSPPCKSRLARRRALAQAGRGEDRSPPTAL

As to `Cc1c2c(c(=O)n3c1C(=O)NC31CCCCC1)Nc1cc(N)ncc1C2` [Compound 2, 8′-amino-12′-methyl-6′,11′-dihydro-2′H-spiro[cyclohexane-1,3′-imidazole[1′,5′:1,6]pyrido[3,4-B][1,6]naphthyridine]-1′,5′-dione hydrochloride], the half-maximal inhibitory concentration (IC50) was under 50 nM in assay [1], under 10 nM in assay [3] and 10 to 100 nM in assay [4]. The same compound returned an inhibition at 1 µM in assay [2] of 99.5%.

Broadly, the IC50 is the concentration that gives 50% inhibition. In general, inhibition refers to the percentage by which the read-out fell short of the control. A higher inhibition goes with strong suppression.
